In US20260184669A1, “LIPID COMPOUND AND COMPOSITION FOR DELIVERY OF ACTIVE SUBSTANCE” (KOREA RESEARCH INSTIUTE OF BIOSCIENCE AND BIOTECHNOLOGY, priority 2022, published 2026):

Assay: mRNA encapsulation efficiency (Quant-IT RiboGreen RNA assay)
Assay type: physicochemical
Conditions: mRNA encapsulation efficiency of mRNA-LNP made with the ionizable lipid; average of two measurements
Procedure, shortened: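 LNP samples read with RiboGreen reagent in TE buffer with or without 2% Triton X-100 (37 °C, 10 min) to release encapsulated mRNA. Fluorescence at λex 480/λem 520 nm; EE % calculated from the two readings, averaged over two independent measurements.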

With `CCCCC/C=C\C/C=C\CCCCCCCCC(CCCCCCCC/C=C\C/C=C\CCCCC)OC(=O)CCCN(C)C` [MC3, DLin-MC3-DMA, reference compound] the “EE (%)” value was 95%.
